In patent publication US20250297134A1, “HIGH RATE BULK OXIDE CMP COMPOSITION” (ENTEGRIS, INC., priority 2024, published 2025):

Experiment: Aqueous solubility of hydroxamic acid compounds
Assay type: physicochemical
Conditions: deionized water, pH 5.5, stirred overnight, filtered, 1H NMR quantification
Experimental: The aqueous solubility was measured and the partition coefficient was computed for nineteen hydroxamic acid compounds. To measure the aqueous solubility, a supersaturated solution of each hydroxamic acid compound was prepared in deionized water. The pH was adjusted to 5.5 using nitric acid and the supersaturated solution was stirred overnight. Excess solids were removed via filtration and the hydroxamic acid compound in solution was quantified using 1H NMR with a t-BuOH standard. […] It was not possible to achieve super saturation for the 2-furohydroxamic acid compound. […] The partition coefficients were computed using the procedure described in Wildman, Scott A. and Crippen, Gordon M., Prediction of Physicochemical Parameters by Atomic Contributions, J. Chem. Inf. Comput. Sci. 1999, 39, 5, 868-873. Briefly, an atom type classification system was used for an atom-based calculation of the partition coefficient (log P) and the molar refractivity (MR).

Aqueous Solubility [%] | Compound
1.8 | O=C(COCc1ccccc1)NO [Benzyloxyacetohydroxamic acid]
0.4 | COc1ccc(C(=O)NO)cc1 [4-Methoxybenzohydroxamic acid]
3.3 | Cc1ccccc1C(=O)NO [2-Methylbenzohydroxamic acid]
0.5 | N#Cc1ccc(C(=O)NO)cc1 [4-Cyano-N-hydroxybenzamide]
1.5 | O=C(Cc1ccccc1)NO [N-hydroxy-2-phenyl-acetamide]
0.2 | CCCCCCCC(=O)NO [Octanohydroxamic acid]
1.0 | 4-Fluoro hydroxamic acid
4.8 | CCCCCC(=O)NO [Hexanohydroxamic acid]
3.6 | O=C(NO)c1ccccc1 [Benzohydroxamic acid]
>17.8 | O=C(NO)c1ccco1 [2-furohydroxamic acid]
1.0 | 2-Fluoro hydroxamic acid
0.2 | Cc1ccc(CCCC(=O)NO)cc1 [4-(p-tolyl)butyrohydroxamic acid]
0.5 | Cc1ccc(C(=O)NO)cc1 [4-Methylbenzohydroxamic acid]
3.0 | O=C(NO)c1ccccn1 [Picolinichydroxamic acid]
1.3 | 3-Fluoro hydroxamic acid
1.6 | O=C(CCCc1ccccc1)NO [4-Phenylbutyrl hydroxamic acid]
0.6 | O=C(C=Cc1ccccc1)NO [Cinnamohydroxamic acid]
1.1 | COc1ccccc1C(=O)NO [2-Methoxybenzohydroxamic acid]
